Results reported in patent publication US8361796B2, “Method for generating primate cardiovascular progenitor cells for clinical use from primate embryonic stem cells or embryonic-like state cells, and their applications” (Assistance Publique—Hopitaux de Paris, priority 2008, dated 2013).

Tests used:
[1] = biological target: fibroblast growth factor receptor 1 (FGFR1) (Homo sapiens, UniProt P11362); conditions: read-out: IC50, tyrosine kinase activity of FGFR1; in the presence of 1 mM ATP; cited from earlier work
Sequence of fibroblast growth factor receptor 1 (FGFR1) (P11362 22-822, species assumed): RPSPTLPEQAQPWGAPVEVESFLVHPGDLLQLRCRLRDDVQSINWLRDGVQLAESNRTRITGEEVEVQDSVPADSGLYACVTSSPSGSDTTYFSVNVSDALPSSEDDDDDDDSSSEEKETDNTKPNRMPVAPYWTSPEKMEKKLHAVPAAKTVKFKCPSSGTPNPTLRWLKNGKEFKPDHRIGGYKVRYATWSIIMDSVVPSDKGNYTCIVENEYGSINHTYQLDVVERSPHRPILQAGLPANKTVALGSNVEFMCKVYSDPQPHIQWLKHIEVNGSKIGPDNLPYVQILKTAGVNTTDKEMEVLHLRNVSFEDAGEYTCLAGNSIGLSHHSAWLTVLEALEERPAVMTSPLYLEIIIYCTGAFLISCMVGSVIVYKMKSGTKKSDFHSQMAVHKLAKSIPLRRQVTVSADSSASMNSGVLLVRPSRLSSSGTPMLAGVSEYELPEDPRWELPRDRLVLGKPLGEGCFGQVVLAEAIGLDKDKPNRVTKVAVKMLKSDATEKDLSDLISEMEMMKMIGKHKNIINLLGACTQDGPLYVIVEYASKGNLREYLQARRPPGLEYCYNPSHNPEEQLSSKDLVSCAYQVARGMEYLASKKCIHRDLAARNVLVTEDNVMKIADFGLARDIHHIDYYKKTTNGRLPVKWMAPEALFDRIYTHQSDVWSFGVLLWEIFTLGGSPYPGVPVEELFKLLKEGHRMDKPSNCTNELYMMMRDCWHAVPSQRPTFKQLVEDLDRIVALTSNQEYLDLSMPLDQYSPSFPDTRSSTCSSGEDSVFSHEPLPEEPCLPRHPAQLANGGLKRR

EGF receptor = EGF receptor (Homo sapiens, UniProt P00533); conditions: cited from earlier work
Sequence of EGF receptor (P00533 25-1210): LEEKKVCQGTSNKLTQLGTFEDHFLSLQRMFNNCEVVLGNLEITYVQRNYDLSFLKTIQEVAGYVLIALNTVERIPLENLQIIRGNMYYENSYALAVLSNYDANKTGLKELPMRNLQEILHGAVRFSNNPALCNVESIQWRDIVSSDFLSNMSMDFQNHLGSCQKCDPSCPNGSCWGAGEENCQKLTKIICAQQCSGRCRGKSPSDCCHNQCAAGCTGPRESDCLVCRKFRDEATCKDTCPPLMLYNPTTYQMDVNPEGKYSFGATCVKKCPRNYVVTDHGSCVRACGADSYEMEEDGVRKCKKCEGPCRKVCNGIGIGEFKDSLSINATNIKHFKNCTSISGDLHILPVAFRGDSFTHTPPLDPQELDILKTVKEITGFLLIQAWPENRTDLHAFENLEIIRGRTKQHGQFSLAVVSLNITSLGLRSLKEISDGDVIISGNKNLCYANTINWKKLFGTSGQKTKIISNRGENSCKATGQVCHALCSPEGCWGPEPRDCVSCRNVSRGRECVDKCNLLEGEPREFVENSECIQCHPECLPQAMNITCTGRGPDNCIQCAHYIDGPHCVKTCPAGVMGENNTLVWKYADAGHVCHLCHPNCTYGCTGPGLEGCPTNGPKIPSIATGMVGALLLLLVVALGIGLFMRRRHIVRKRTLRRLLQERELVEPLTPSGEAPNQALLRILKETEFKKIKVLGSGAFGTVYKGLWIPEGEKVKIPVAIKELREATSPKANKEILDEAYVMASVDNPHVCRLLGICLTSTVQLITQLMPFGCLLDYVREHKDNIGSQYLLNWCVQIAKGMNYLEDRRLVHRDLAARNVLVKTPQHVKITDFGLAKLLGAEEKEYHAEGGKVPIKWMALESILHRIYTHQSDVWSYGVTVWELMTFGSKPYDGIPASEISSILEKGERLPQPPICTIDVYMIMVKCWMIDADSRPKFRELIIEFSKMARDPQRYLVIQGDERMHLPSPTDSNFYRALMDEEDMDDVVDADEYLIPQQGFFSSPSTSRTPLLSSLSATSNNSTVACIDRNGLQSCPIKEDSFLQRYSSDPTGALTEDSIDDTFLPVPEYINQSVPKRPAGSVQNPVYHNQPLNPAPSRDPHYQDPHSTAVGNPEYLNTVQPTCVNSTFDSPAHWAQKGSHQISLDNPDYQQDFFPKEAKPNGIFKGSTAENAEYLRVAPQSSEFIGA

insulin receptor = insulin receptor (Homo sapiens, UniProt P06213); conditions: cited from earlier work
Sequence of insulin receptor (P06213 28-1382, species assumed): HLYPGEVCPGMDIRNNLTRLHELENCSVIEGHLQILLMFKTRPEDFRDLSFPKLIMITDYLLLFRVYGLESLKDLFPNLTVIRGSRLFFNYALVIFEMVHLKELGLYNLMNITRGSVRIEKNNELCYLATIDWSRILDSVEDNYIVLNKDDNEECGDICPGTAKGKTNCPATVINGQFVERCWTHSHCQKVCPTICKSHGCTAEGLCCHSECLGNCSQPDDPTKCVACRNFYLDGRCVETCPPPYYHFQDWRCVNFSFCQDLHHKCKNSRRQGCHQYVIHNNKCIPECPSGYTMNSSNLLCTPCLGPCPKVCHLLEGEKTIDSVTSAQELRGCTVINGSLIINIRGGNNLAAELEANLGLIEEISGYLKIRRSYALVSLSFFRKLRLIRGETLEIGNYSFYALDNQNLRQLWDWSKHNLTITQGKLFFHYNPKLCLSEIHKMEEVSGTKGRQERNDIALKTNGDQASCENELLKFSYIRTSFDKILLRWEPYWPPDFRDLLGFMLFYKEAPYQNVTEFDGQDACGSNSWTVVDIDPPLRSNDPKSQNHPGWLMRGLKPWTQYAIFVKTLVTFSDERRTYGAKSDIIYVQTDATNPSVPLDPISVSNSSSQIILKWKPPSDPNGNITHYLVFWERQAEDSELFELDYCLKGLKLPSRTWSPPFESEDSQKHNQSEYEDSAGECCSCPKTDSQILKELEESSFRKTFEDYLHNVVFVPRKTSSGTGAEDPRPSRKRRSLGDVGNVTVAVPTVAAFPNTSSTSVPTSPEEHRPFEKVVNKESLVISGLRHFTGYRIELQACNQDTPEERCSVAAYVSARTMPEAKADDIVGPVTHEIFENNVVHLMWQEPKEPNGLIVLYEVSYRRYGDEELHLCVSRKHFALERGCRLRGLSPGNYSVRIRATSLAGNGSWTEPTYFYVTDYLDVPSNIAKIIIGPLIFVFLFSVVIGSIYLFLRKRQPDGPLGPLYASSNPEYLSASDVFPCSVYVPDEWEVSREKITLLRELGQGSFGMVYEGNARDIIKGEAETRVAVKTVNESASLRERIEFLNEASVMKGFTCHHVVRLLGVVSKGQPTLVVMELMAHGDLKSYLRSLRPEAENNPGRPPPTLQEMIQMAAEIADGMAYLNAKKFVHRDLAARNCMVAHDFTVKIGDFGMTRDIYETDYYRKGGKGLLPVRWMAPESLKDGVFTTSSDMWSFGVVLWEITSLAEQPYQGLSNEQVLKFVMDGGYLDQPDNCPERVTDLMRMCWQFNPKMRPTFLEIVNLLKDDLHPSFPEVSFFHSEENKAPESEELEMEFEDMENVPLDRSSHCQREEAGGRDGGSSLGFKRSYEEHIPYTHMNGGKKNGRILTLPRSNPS

ERK1 and ERK2 = conditions: read-out: IC50, aFGF-induced tyrosine phosphorylation of ERK1 and ERK2; cited from earlier work
PDGF receptor = conditions: cited from earlier work
CD15+ cells = assay: Differentiation of CD15+ sorted cells treated with VEGF or PDGF; type: cell-based, primate; conditions: 10 or 50 ng/ml
Description: FIGS. 11A, 11B and 11C: CD15+ cells express cardiac, endothelial and vascular proteins markers; CD15+ sorted cells were cultured for 5 days on MEF and immunostained with the indicated markers; some cells were treated with VEGF or PDGF and immunostained with anti smooth muscle actin and myosin or CD31. Some others were cultured with human fibroblast isolated from the myocardium and stained with an anti-actinin antibody.
When cultured on human cardiac fibroblasts, CD15+ cells differentiate into actinin-positive cardiomyocytes.

Description for HUES-1 cells: HES cells were treated for 48 hrs with 10 ng/ml BMP2 in the presence or absence of 1 μM SU5402, a FGF receptor inhibitor, in low KO™SR (5%) containing KO™-DMEM.
Gene induction was tested using real time Q-PCR.

| Compound | enhancement of BMP2 induction of mesodermal and cardiac genes (HUES-1 cells; 48 hrs, 10 ng/ml BMP2 with 1 μM SU5402 versus BMP2 alone) | enhancement of BMP2 instructive action (HUES-1 cells; defined (KOSR) medium, SU5402 added to BMP2) | IC50 [1] | inhibition of the kinase activity of the EGF receptor (EGF receptor) | inhibition of phosphorylation of the insulin receptor (insulin receptor) | IC50 (ERK1 and ERK2) | inhibition of tyrosine phosphorylation of the PDGF receptor (PDGF receptor) | fate of CD15+ cells (CD15+ cells) |
| --- | --- | --- | --- | --- | --- | --- | --- | --- |
| Cc1c[nH]c(C=C2C(=O)Nc3ccccc32)c1CCC(=O)O [SU5402, 3-[3-(2-Carboxyethyl)-4-methylpyrrol-2-methylidenyl]-2-indolinone] | 3-10 folds | dramatically enhanced | 10 to 20 µM | does not inhibit | does not inhibit | 10 to 20 µM | only a weak inhibitor |  |
| PDGF |  |  |  |  |  |  |  | smooth muscle cells |
| VEGF |  |  |  |  |  |  |  | endothelial |
